Results reported in patent publication US20260176282A1, “BICYCLIC COMPOUNDS AS CDK INHIBITORS” (BEONE MEDICINES I GMBH, priority 2023, published 2026).
Like-named read-outs stand apart in the source and are kept apart here.

Columns and labels:
CDK2/Cyclin E1 [1] = molecular target: T1, CDK2/Cyclin E1 (Homo sapiens, UniProt P24941); experiment: CDK2/Cyclin E1 TR-FRET biochemical assay (0.060 mM ATP); conditions: 120 minutes reaction
Method: (§1) Compounds disclosed herein were tested for inhibition of CDK2/Cyclin E1 or CDK1/Cyclin B1 kinase in an assay based on the time-resolved fluorescence-resonance energy transfer (TR-FRET) methodology. The assay was carried out in 384-well low volume black plates in a reaction mixture containing CDK2/Cyclin E1 or CDK1/Cyclin B1, 0.060 mM ATP for CDK2/Cyclin E1 or 0.015 mM ATP for CDK1/Cyclin B1, 0.15 μM Rb (Ser780)-biotin substrate and 0-10 μM compound in buffer containing 50 mM HEPES pH7.0, 0.02% NaN3, 0.01% BSA, 0.1 mM Orthovanadate, 50 mM MgCl2, 1 mM DTT and 0.005% Tween-20. The kinase was incubated with compound for 60 minutes at room temperature and the reaction was initiated by the addition of ATP and Rb (Ser780)-biotin substrate. After reaction at room temperature for 120 minutes, an equal volume of stop/detection solution was added according to the manufacture's instruction (Cisbio Bioassays). The stop/detection solution contained Streptavidin-XL665 and Anti-pRb (Ser780) mAb-Eu Cryptate in Detection buffer (Cisbio Bioassays). Plates were incubated at room temperature for 60 minutes, and the TR-FRET signals (ex337 nm, em665 nm/620 nm) were recorded on a PHERAstar FSX plate reader (BMG Labtech). The inhibition percentage of CDK2/Cyclin E1 or CDK1/Cyclin B1 kinase activity in presence of increasing concentrations of compounds was calculated based on the ratio of fluorescence at 665 nm to that at 620 nm. The IC50 for each compound was derived from fitting the data to the four-parameter logistic equation by Dotmatics.

HEK-293 cells = experiment: HEK-293 cell cytotoxicity detection (CellTiter-Glo); assay type: cell-based; conditions: incubation of 72 h, CellTiter-Glo luminescence
Method: HEK-293 cells were treated with compounds diluted in 0.4% DMSO, dilution was done according to the following protocol: (1) making 250× stock solution in DMSO from 10 mM by 4-fold dilution, total 8 doses were included; (2) making 2 solution in cell culture medium by transferring 1 μl 250× stock solution into 124 μl medium; (3) adding 50 μl of 2× solution to cells for incubation of 72 h.
25 μl of the CellTiter-Glo® Reagent [(PromegaCat #G9242)] was added to each well in the 96-well plate. The contents were mixed for 2 minutes on an orbital shaker to induce cell lysis. The plate was then allowed to incubate at room temperature for 10 minutes to stabilize luminescent signal. Luminescence was recorded on BMG PheraStar with luminescence protocol.
The IC50 value of a compound can be obtained by fitting the following equation: […]
Wherein, X and Y are known values, and IC50, Hillslope, Top and Bottom are the parameters obtained by fitting with software. Y is the inhibition percentage (calculated from the equation), X is the concentration of the compound; IC50 is the concentration of the compound when the 50% inhibition is reached. The smaller the IC50 value is, the stronger the inhibitory ability of the compound is. Vice versa, the higher the IC50 value is, the weaker the ability the inhibitory ability of the compound is; Hillslope represents the slope of the fitted curve, generally around 1*; Bottom represents the minimum value of the curve obtained by data fitting, which is generally 0%±20%; Top represents the maximum value of the curve obtained by data fitting, which is generally 100%±20%. The experimental data were fitted by calculating and analyzing with Dotmatics data analysis software.

CDK1/Cyclin B1 [2] = molecular target: T2, CDK1/Cyclin B1 (Homo sapiens, UniProt P06493); experiment: CDK1/Cyclin B1 TR-FRET biochemical assay (0.015 mM ATP); conditions: 120 minutes reaction
Method: as §1

CDK1/Cyclin B1 [3] = molecular target: T2, CDK1/Cyclin B1; experiment: CDK1/Cyclin B1 TR-FRET biochemical assay (1 mM ATP); conditions: 90 minutes reaction
Method: as §1, with “1” for “0.060”, “and” for “or 0.015 mM ATP for”, “90” for “120”

CDK2/Cyclin E1 [4] = molecular target: T1, CDK2/Cyclin E1; experiment: CDK2/Cyclin E1 TR-FRET biochemical assay (1 mM ATP); conditions: 90 minutes reaction
Method: as §1, with “1” for “0.060”, “and” for “or 0.015 mM ATP for”, “90” for “120”

T2 sequence (P06493 whole entry): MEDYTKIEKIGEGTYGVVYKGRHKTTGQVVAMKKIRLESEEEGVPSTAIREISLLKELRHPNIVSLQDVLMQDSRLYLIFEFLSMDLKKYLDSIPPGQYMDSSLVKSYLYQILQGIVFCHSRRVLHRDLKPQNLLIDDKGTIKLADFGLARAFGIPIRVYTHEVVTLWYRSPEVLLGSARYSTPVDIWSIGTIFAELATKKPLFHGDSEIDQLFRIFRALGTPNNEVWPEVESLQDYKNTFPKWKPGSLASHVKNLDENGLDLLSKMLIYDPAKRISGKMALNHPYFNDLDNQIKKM
T2 sequence (P14635 whole entry partner): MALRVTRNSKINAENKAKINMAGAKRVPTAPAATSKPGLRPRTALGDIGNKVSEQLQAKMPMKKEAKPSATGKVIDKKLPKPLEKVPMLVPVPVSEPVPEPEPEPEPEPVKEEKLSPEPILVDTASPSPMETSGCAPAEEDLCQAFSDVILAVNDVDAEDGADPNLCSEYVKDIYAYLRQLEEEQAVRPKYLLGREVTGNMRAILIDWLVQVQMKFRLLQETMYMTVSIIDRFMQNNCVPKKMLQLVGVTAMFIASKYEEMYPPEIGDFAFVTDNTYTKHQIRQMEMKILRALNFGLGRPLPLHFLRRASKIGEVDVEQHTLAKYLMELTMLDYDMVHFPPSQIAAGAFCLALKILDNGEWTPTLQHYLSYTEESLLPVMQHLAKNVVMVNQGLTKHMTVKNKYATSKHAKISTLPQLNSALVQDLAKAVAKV

SMILES | IC50 (CDK2/Cyclin E1 [1]) [nM] | IC50 (CDK1/Cyclin B1 [2]) [nM] | IC50 (CDK1/Cyclin B1 [3]) [nM] | IC50 (CDK2/Cyclin E1 [4]) [nM] | IC50 (HEK-293 cells; Homo sapiens, HEK293, 72 h) [nM] | IC50 (HEK-293 cells; read-out: HEK293 IC50) [nM]
CCCNC(=O)O[C@H]1CC[C@@H](c2cc(Nc3ccc4c(c3F)S(=O)(=O)CC4)n[nH]2)C1 (relative stereo) [Example 4, cis-3-(3-((7-fluoro-1,1-dioxido-2,3-dihydrobenzo[b]thiophen-6-yl)amino)-1H-pyrazol-5-yl)cyclopentyl propylcarbamate] | 17 | 191 | – | – | 8590 | –
CC(C)NC(=O)O[C@H]1CC[C@@H](c2cc(Nc3cc4c(cc3F)C[S+]([O-])C4)n[nH]2)C1 (relative stereo) [Example 29, cis-3-(3-((6-fluoro-2-oxido-1,3-dihydrobenzo[c]thiophen-5-yl)amino)-1H-pyrazol-5-yl)cyclopentyl isopropylcarbamate] | – | – | > 10000 | 576 | > 10000 | –
CC1(NC(=O)OC2CCC(c3cc(Nc4ccc5c(c4F)CS(=O)(=O)C5)n[nH]3)C2)CCOC1 (single isomer, unassigned) [Example 13a, cis-3-(3-((4-fluoro-2,2-dioxido-1,3-dihydrobenzo[c]thiophen-5-yl)amino)-1H-pyrazol-5-yl)cyclopentyl (3-methyltetrahydrofuran-3-yl)carbamate] | – | – | 493 | 0.5 | – | 2150
C[C@]1(O)CC[C@@H](NC(=O)OC2CCC(c3cc(Nc4ccc5c(c4F)CS(=O)(=O)C5)n[nH]3)C2)CC1 (stereo partly drawn) [Example 25, cis-3-(3-((4-fluoro-2,2-dioxido-1,3-dihydrobenzo[c]thiophen-5-yl)amino)-1H-pyrazol-5-yl)cyclopentyl ((1s,4s)-4-hydroxy-4-methylcyclohexyl)carbamate] | – | – | 768 | 1.8 | 1130 | –
CN(C(=O)O[C@H]1CC[C@@H](c2cc(Nc3ccc4c(c3F)CS(=O)(=O)C4)n[nH]2)C1)C1CCOC1 (relative stereo) [Example 21, cis-3-(3-((4-fluoro-2,2-dioxido-1,3-dihydrobenzo[c]thiophen-5-yl)amino)-1H-pyrazol-5-yl)cyclopentyl methyl(tetrahydrofuran-3-yl)carbamate] | – | – | 2600 | 24 | > 10000 | –
CC(C)NC(=O)O[C@H]1CC[C@@H](c2cc(Nc3cc4c(cc3F)CSC4)n[nH]2)C1 (relative stereo) [Example 30, cis-3-(3-((6-fluoro-1,3-dihydrobenzo[c]thiophen-5-yl)amino)-1H-pyrazol-5-yl)cyclopentyl isopropylcarbamate] | – | – | > 10000 | 383 | > 10000 | –
O=C(NC1CCC1)O[C@H]1CC[C@@H](c2cc(Nc3ccc4c(c3F)CS(=O)(=O)C4)n[nH]2)C1 (relative stereo) [Example 12, cis-3-(3-((4-fluoro-2,2-dioxido-1,3-dihydrobenzo[c]thiophen-5-yl)amino)-1H-pyrazol-5-yl)cyclopentyl cyclobutylcarbamate] | – | – | 609 | 1.2 | 499 | –

The next lines start with results.

IC50 (CDK2/Cyclin E1 [1]) [nM] | IC50 (CDK1/Cyclin B1 [2]) [nM] | IC50 (CDK1/Cyclin B1 [3]) [nM] | IC50 (CDK2/Cyclin E1 [4]) [nM] | SMILES | IC50 (HEK-293 cells; Homo sapiens, HEK293, 72 h) [nM] | IC50 (HEK-293 cells; read-out: HEK293 IC50) [nM]
49 | 1140 | – | – | CC(C)NC(=O)O[C@H]1CC[C@@H](c2cc(Nc3cc4c(cc3F)S(=O)(=O)CC4)n[nH]2)C1 (relative stereo) [Example 1, cis-3-(3-((6-fluoro-1,1-dioxido-2,3-dihydrobenzo[b]thiophen-5-yl)amino)-1H-pyrazol-5-yl)cyclopentyl isopropylcarbamate] | > 10000 | –
0.3 | 3.3 | – | – | CC1(NC(=O)O[C@H]2CC[C@@H](c3cc(Nc4ccc5c(c4F)CS(=O)(=O)C5)n[nH]3)C2)CC1 (relative stereo) [Example 11, cis-3-(3-((4-fluoro-2,2-dioxido-1,3-dihydrobenzo[c]thiophen-5-yl)amino)-1H-pyrazol-5-yl)cyclopentyl (1-methylcyclopropyl)carbamate] | 317 | –
5 | 117 | – | – | CC[C@H](C)NC(=O)OC1CCC(c2cc(Nc3ccc4c(c3F)S(=O)(=O)CC4)n[nH]2)C1 (stereo in doubt) [Example 5, cis-3-(3-((7-fluoro-1,1-dioxido-2,3-dihydrobenzo[b]thiophen-6-yl)amino)-1H-pyrazol-5-yl)cyclopentyl ((S)-sec-butyl)carbamate] | 1650 | –
– | – | 4830 | 31 | O=C(NC1COC1)O[C@H]1CC[C@@H](c2cc(Nc3ccc4c(c3F)CS(=O)(=O)C4)n[nH]2)C1 (relative stereo) [Example 20, cis-3-(3-((4-fluoro-2,2-dioxido-1,3-dihydrobenzo[c]thiophen-5-yl)amino)-1H-pyrazol-5-yl)cyclopentyl oxetan-3-ylcarbamate] | > 10000 | –
– | – | 4730 | 17 | O=C(NC1CCOC1)OC1CCC(c2cc(Nc3ccc4c(c3F)CS(=O)(=O)C4)n[nH]2)C1 (single isomer, unassigned) [Example 24a, cis-3-(3-((4-fluoro-2,2-dioxido-1,3-dihydrobenzo[c]thiophen-5-yl)amino)-1H-pyrazol-5-yl)cyclopentyl (tetrahydrofuran-3-yl)carbamate] | > 10000 | –
– | – | 7870 | 61 | O=C(NC1CCOC1)OC1CCC(c2cc(Nc3ccc4c(c3F)CS(=O)(=O)C4)n[nH]2)C1 (single isomer, unassigned) [Example 24b, cis-3-(3-((4-fluoro-2,2-dioxido-1,3-dihydrobenzo[c]thiophen-5-yl)amino)-1H-pyrazol-5-yl)cyclopentyl (tetrahydrofuran-3-yl)carbamate] | – | > 10000
– | – | 1180 | 1.1 | C[C@]1(O)CC[C@H](NC(=O)OC2CCC(c3cc(Nc4ccc5c(c4F)CS(=O)(=O)C5)n[nH]3)C2)CC1 (stereo partly drawn) [Example 34, cis-3-(3-((4-fluoro-2,2-dioxido-1,3-dihydrobenzo[c]thiophen-5-yl)amino)-1H-pyrazol-5-yl)cyclopentyl ((1r,4r)-4-hydroxy-4-methylcyclohexyl)carbamate] | 1430 | –
– | – | 181 | 0.8 | CC(C)(CO)NC(=O)O[C@H]1CC[C@@H](c2cc(Nc3ccc4c(c3F)CS(=O)(=O)C4)n[nH]2)C1 (relative stereo) [Example 19, cis-3-(3-((4-fluoro-2,2-dioxido-1,3-dihydrobenzo[c]thiophen-5-yl)amino)-1H-pyrazol-5-yl)cyclopentyl (1-hydroxy-2-methylpropan-2-yl)carbamate] | 201 | –
